Data on 1 molecule can be found in patent US8802094B2, “Method of reducing phosphate absorption by administering orally an IgY anti-intestinal sodium phosphate cotransporter type 2B antibody” (Wisconsin Alumni Research Foundation, priority 2006, dated 2014).

Each structure is given as a SMILES string.

In the test the test system is chicken intestinal alkaline phosphatase. Description: Feeding anti-intestinal alkaline phosphatase egg antibody to chicks with active vitamin D: plasma phosphorous. It counts as in vivo, chicken (Single Comb White Leghorn chicks). The settings on record: leghorn chicks, 10 days. The method, then: Single Comb White Leghorn laying hens were used for antibody production (3 hens per peptide antigen). Chicken intestinal alkaline phosphatase was purchased from Worthington. To prepare a vaccine for each hen 0.5 mg of chicken intestinal alkaline phosphatase was diluted to a final concentration of 0.5 ml PBS and mixed with 0.5 ml of Freund's complete adjuvant (first injection) or incomplete adjuvant (booster vaccination) to form a water in oil emulsification capable of holding a bead when dripped on ice water. The hen was then injected in four sites (each leg and each breast) with 0.25 ml of the vaccine emulsion intramuscularly. The booster injection in incomplete adjuvant occurred 7 days later.
In approximately 30 day lots, egg yolks from each hen were separated from whole eggs, mixed and lyophilized. Dried egg yolk powder containing the antibody was stored at room temperature until use in animal feeding studies.
The chicken model used in this study was described by Biehl and Baker, J. Nutr. 1997, 127:2054-2059 with the exception of antibodies to intestinal alkaline phosphatas. The negative control used in this study was a Pi deficient diet (Pi=inorganic phosphate which are largely mineral phosphates or phosphate from animal tissues and products such as milk and eggs), where the dietary phosphorous used was phytic phosphate. […]

Take `C=C1/C(=C\C=C2/CCC[C@]3(C)[C@@H]([C@H](C)CCCC(C)C)CC[C@@H]23)C[C@@H](O)C[C@@H]1O` [Active vitamin D, 1α-hydroxyvitamin D3]: where the note is “Pi deficient diet, antibody vs active vitamin D alone, vitamin D vs negative control”, the “effect on plasma phosphorous levels (in words)” value is listed as “increased blood phosphorous levels in comparison to the negative control”. The “Plasma phosphate” value (Pi deficient phytic phosphorous diet, 1α-hydroxyvitamin D3 20 μg/kg diet alone or plus antibody 1 g/kg diet) turned out to be 6.70 mg/dL.
